Results taken from patent publication US8288342B2, “Methods for treating vasomotor symptoms in castrated prostatic cancer patients with low dose cyproterone acetate” (priority 2008, dated 2012).

Tests used:
hot flashes = conditions: 37 subjects with bothersome hot flashes; cited from earlier work
[1] = system: hot flashes in castrated prostatic cancer patients; assay: Prior study of 50 mg and 100 mg CPA: hot flash efficacy; format: in vivo, human; conditions: N 236
Procedure: (§1) The results of this study were compared with results from a prior study in which the efficacy of 50 mg and 100 mg of CPA was investigated. Efficacy data for the 50 mg and 100 mg studies showing a reduction in average daily number of moderate to severe hot flashes, and a reduction in average severity of hot flashes is shown in FIGS. 6 and 7, respectively. A comparison of the percent of patients with complete disappearance of all hot flashes at 12 weeks of treatment across studies is shown in Table 10.

[2] = system: hot flashes following surgical or medical castration of prostate cancer patients; assay: Randomized, multicenter, placebo-controlled Phase 2 trial of CPA 5, 15, 25 mg/day: hot flash efficacy; format: in vivo, human; conditions: for Reduction in average severity of moderate to severe hot flashes compared to placebo (positive) / Reduction in weekly average severity of hot flashes compared to placebo (Table 7 analysis, positive) / LS Mean Change in Weekly Average Severity of All Hot Flashes / LS Mean Change in Weekly Average Severity of Moderate to Severe Hot Flashes: 4-point scale; for Fewer weekly moderate to severe hot flashes compared to placebo (reduction, positive): baseline to end-of-treatment
From the text: The inclusion criteria included male (>18 years) prostate cancer patients who have undergone bilateral orchiectomy or have used or are using LHRH analogue drug([…]®, Aberelix®), and have complained of bothersome hot flashes as defined by the occurrence of at least 3 moderate to severe hot flashes per day or 21 per week at baseline. Hot flashes were present for at least 1 month prior to study entry. […] A total of 121 clinical sites in the United States and Canada participated in this Phase 2 study with 77 sites enrolling at least one subject. The overall study duration for each subject was approximately 19 weeks, which included a screening period of up to 4 weeks, a one-week placebo run-in period, a 12-week double-blind period, and a follow-up telephone call two weeks after the last dose of study medication. After providing informed consent on the first day of the screening period, all subjects had medical and hot flash history recorded, a physical examination, a chest x-ray and Doppler to assess known thromboembolic risk factors, an ECG to evaluate cardiac risks, and clinical laboratory evaluations. Once all results of tests conducted during the screening period were obtained, subjects who met all of the inclusion criteria and none of the exclusion criteria were eligible to enter the one-week, single-blind, placebo run-in period. […] CPA 5, 15, or 25 mg/day or placebo. After beginning study medication, subjects returned for study visits at weeks 2, 4, 8, and 12. Two weeks after the final treatment visit, a telephone follow-up call was conducted to record and evaluate adverse events (“AE”s) since the last study visit. Each subject received one tablet daily, which was administered orally. All tablets were blinded and identical in appearance. The formulation used in this study was an immediate release product containing 5, 15, or 25 mg of CPA. The CPA tablets are described in Example 1. The dosage form for the CPA used in this study was an identical, blind, modified oval, scored, immediate release oral tablet for each strength, consisting of cyproterone acetate, lactose, microcrystalline cellulose, crospovidone, sodium lauryl sulfate, silicon dioxide, magnesium stearate, and stearic acid. Placebo tablets included the same constituents but without CPA and were identical in appearance to the active tablets. During the single-blind placebo run-in period, subjects received one medication bottle containing a one week+2 day supply (9 tablets total) of single-blind placebo tablets and a copy of the Subject Information Sheet. Subjects were instructed to take one tablet each morning by mouth, preferably with a meal, at approximately the same time each day. Subjects were not made aware that they were receiving placebo. Following randomization at Visit 2, all enrolled and eligible subjects were randomized equally to one of four treatment groups (CPA 5, 15, 25 mg, or placebo) and received the study medication on the same day. At treatment visits 0, 4, and 8 weeks following initiation, each subject received one medication bottle containing a one-month supply+7 (35 tablets total) of double-blind […] tablets and a copy of the Subject Information Sheet. Subjects were instructed to take one tablet each morning by mouth, preferably with a meal, at approximately the same time each day. This study was designed to evaluate three doses of CPA (5 mg, 15 mg, and 25 mg) for the treatment of hot flashes in prostate cancer patients. Observation of a reduction in the frequency and severity of hot flashes was considered a reasonable and reliable indicator of the efficacy of active treatment. The primary measure of efficacy was the change in weekly frequency and weekly average severity of moderate to severe hot flashes from the placebo run-in period to the final week of treatment. […]

[3] = system: post-orchiectomy hot flashes in prostate cancer subjects; conditions: CPA 300 mg daily, 3 weeks, 12 post-orchiectomy subjects; cited from earlier work
[4] = Prior study of 50 mg and 100 mg CPA: discontinuation rates; format: in vivo, human
Procedure: as §1

[5] = system: hot flashes and outbreaks of sweating after orchiectomy; conditions: CPA 150 mg daily, cited from earlier work
[6] = system: quality of life of prostate cancer patients; conditions: 367 evaluable patients; oral and i.m., doses varied; cited from earlier work
[7] = all three treatment groups (5, 15, 25 mg/day)

In the case of `CC(=O)O[C@]1(C(C)=O)CC[C@H]2[C@@H]3C=C(Cl)C4=CC(=O)[C@@H]5C[C@@H]5[C@]4(C)[C@H]3CC[C@@]21C` [CPA, cyproterone acetate], the “Therapeutic efficacy: reduction in hot flashes” value (hot flashes) is given as 80%, the “% With Complete Disappearance of All Hot Flashes at 12 Weeks/End-of-Treatment” value ([1]; CPA 50 mg) is given as 38.5% and the “% With Complete Disappearance of All Hot Flashes at 12 Weeks/End-of-Treatment” value ([1]; CPA 100 mg) is given as 46.0%. For the same molecule, the “% With Complete Disappearance of All Hot Flashes at 12 Weeks/End-of-Treatment” value ([2]; CPA 5 mg, N 80) was 27.5%, the “Proportion of subjects with total elimination of moderate to severe hot flashes (Yes)” value (“Proportion of subjects … (Yes)” for short) ([2]; CPA 5 mg/day) was 27.27% and the “Proportion of subjects without total elimination of moderate to severe hot flashes (No)” value ([2]; CPA 5 mg/day) was 72.73%. The “Reduction in average frequency of all hot flashes compared to placebo (positive)” value (“Reduction in average frequency” for short) ([2]; CPA 5 mg/day) was 27.73 units, the “Subjects without total elimination of moderate to severe hot flashes (No), number” value ([2]; CPA 5 mg/day) was 56 and the “LS Mean Change in Total Weekly Moderate to Severe Hot Flash Frequency” value (shortened to “LS Mean Change in Total Weekly Moderate”) ([2]; CPA 5 mg/day oral, Baseline (Day 0) to End-of-Treatment (Day 84)) was −40.47. For the same molecule, the “Subjects with total elimination of moderate to severe hot flashes (Yes), number” value (“Subjects with total elimination … number” for short) ([2]; CPA 5 mg/day, out of 77) was 21, the “Reduction in average severity of moderate to severe hot flashes compared to placebo (positive)” value (shortened to “Reduction in average severity”) ([2]; CPA 5 mg/day) was 0.86 units and the “Reduction in weekly average severity of hot flashes compared to placebo (Table 7 analysis, positive)” value (“Reduction in weekly average severity” for short) ([2]; CPA 5 mg/day) was 0.60 units. For the same molecule, the “Difference from placebo in change of Total Weekly Moderate to Severe Hot Flash Frequency” value ([2]; CPA 5 mg/day, Day 0 to Day 84) was −23.08, the “Difference from placebo in change of Weekly Average Frequency of All Hot Flashes” value ([2]; CPA 5 mg/day, Day 0 to Day 84) was −27.73 and the “Difference from placebo in change of Weekly Average Severity of All Hot Flashes” value ([2]; CPA 5 mg/day, Day 0 to Day 84) was −0.6. For the same molecule, the “Difference from placebo in change of Weekly Average Severity of Moderate to Severe Hot Flashes” value ([2]; CPA 5 mg/day, Day 0 to Day 84) was −0.86, the “LS Mean Change in Weekly Average Frequency of All Hot Flashes” value ([2]; CPA 5 mg/day, Day 0 to Day 84) was −50.67 and the “LS Mean Change in Weekly Average Severity of All Hot Flashes” value ([2]; CPA 5 mg/day, Day 0 to Day 84) was −0.76. The “LS Mean Change in Weekly Average Severity of Moderate to Severe Hot Flashes” value (“LS Mean Change … to Severe Hot Flashes” for short) ([2]; CPA 5 mg/day, Day 0 to Day 84) was −1.06, the “Fewer weekly moderate to severe hot flashes compared to placebo (reduction, positive)” value (“Fewer weekly moderate … (reduction, positive)” for short) ([2]; CPA 5 mg/day) was 23.08 and the “% With Complete Disappearance of All Hot Flashes at 12 Weeks/End-of-Treatment” value ([2]; CPA 15 mg, N 96) was 32.3%. For the same molecule, the “Proportion of subjects … (Yes)” value ([2]; CPA 15 mg/day) was 32.63%, the “Proportion of subjects without total elimination of moderate to severe hot flashes (No)” value ([2]; CPA 15 mg/day) was 67.37% and the “Reduction in average frequency” value ([2]; CPA 15 mg/day) was 32.69 units. The “Subjects without total elimination of moderate to severe hot flashes (No), number” value ([2]; CPA 15 mg/day) was 64, the “LS Mean Change in Total Weekly Moderate” value ([2]; CPA 15 mg/day oral, Day 0 to Day 84) was −45.05 and the “Subjects with total elimination … number” value ([2]; CPA 15 mg/day, out of 95) was 31. For the same molecule, the “Reduction in average severity” value ([2]; CPA 15 mg/day) was 1.13 units, the “Reduction in weekly average severity” value ([2]; CPA 15 mg/day) was 0.78 units and the “Difference from placebo in change of Total Weekly Moderate to Severe Hot Flash Frequency” value ([2]; CPA 15 mg/day, Day 0 to Day 84) was −27.66. The “Difference from placebo in change of Weekly Average Frequency of All Hot Flashes” value ([2]; CPA 15 mg/day, Day 0 to Day 84) was −32.69, the “Difference from placebo in change of Weekly Average Severity of All Hot Flashes” value ([2]; CPA 15 mg/day, Day 0 to Day 84) was −0.78 and the “Difference from placebo in change of Weekly Average Severity of Moderate to Severe Hot Flashes” value ([2]; CPA 15 mg/day, Day 0 to Day 84) was −1.13. The “LS Mean Change in Weekly Average Frequency of All Hot Flashes” value ([2]; CPA 15 mg/day, Day 0 to Day 84) was −55.63, the “LS Mean Change in Weekly Average Severity of All Hot Flashes” value ([2]; CPA 15 mg/day, Day 0 to Day 84) was −0.94 and the “LS Mean Change … to Severe Hot Flashes” value ([2]; CPA 15 mg/day, Day 0 to Day 84) was −1.33. The “Fewer weekly moderate … (reduction, positive)” value ([2]; CPA 15 mg/day) was 27.66, the “% With Complete Disappearance of All Hot Flashes at 12 Weeks/End-of-Treatment” value ([2]; CPA 25 mg, N 86) was 36.1% and the “Proportion of subjects … (Yes)” value ([2]; CPA 25 mg/day) was 36.05%. For the same molecule, the “Proportion of subjects without total elimination of moderate to severe hot flashes (No)” value ([2]; CPA 25 mg/day) was 63.95%, the “Reduction in average frequency” value ([2]; CPA 25 mg/day) was 33.93 units and the “Subjects without total elimination of moderate to severe hot flashes (No), number” value ([2]; CPA 25 mg/day) was 55. The “LS Mean Change in Total Weekly Moderate” value ([2]; CPA 25 mg/day oral, Day 0 to Day 84) was −46.14, the “Subjects with total elimination … number” value ([2]; CPA 25 mg/day, out of 86) was 31 and the “Reduction in average severity” value ([2]; CPA 25 mg/day) was 0.94 units. For the same molecule, the “Reduction in weekly average severity” value ([2]; CPA 25 mg/day) was 0.77 units, the “Difference from placebo in change of Total Weekly Moderate to Severe Hot Flash Frequency” value ([2]; CPA 25 mg/day, Day 0 to Day 84) was −28.75 and the “Difference from placebo in change of Weekly Average Frequency of All Hot Flashes” value ([2]; CPA 25 mg/day, Day 0 to Day 84) was −33.93. For the same molecule, the “Difference from placebo in change of Weekly Average Severity of All Hot Flashes” value ([2]; CPA 25 mg/day, Day 0 to Day 84) was −0.77, the “Difference from placebo in change of Weekly Average Severity of Moderate to Severe Hot Flashes” value ([2]; CPA 25 mg/day, Day 0 to Day 84) was −0.94 and the “LS Mean Change in Weekly Average Frequency of All Hot Flashes” value ([2]; CPA 25 mg/day, Day 0 to Day 84) was −56.87. For the same molecule, the “LS Mean Change in Weekly Average Severity of All Hot Flashes” value ([2]; CPA 25 mg/day, Day 0 to Day 84) was −0.93, the “LS Mean Change … to Severe Hot Flashes” value ([2]; CPA 25 mg/day, Day 0 to Day 84) was −1.14 and the “Fewer weekly moderate … (reduction, positive)” value ([2]; CPA 25 mg/day) was 28.75. For the same molecule, the “Treating all hot flashes, including mild, moderate, and severe” value ([2]; all three doses (5, 15, 25 mg/day)) was “effective”, the “Total weekly frequency of moderate to severe hot flashes over placebo” value [2, 7] was “statistically significant reduction” and the “Weekly average frequency of all hot flashes over placebo” value [2, 7] was “statistically significant reduction”. The “Weekly average severity of all hot flashes over placebo” value [2, 7] was “statistically significant reduction”, the “Weekly average severity of moderate to severe hot flashes over placebo” value [2, 7] was “statistically significant reduction” and the “Frequency of hot flashes” value [3] was “significantly reduced”. The “12-week double-blind discontinuation due to Adverse Event, number” value ([4]; CPA 50 mg (N = 246)) was 13, the “12-week double-blind discontinuation rate due to Adverse Event” value ([4]; CPA 50 mg (N = 246)) was “(5.3%)” and the “12-week double-blind discontinuation due to Adverse Event, number” value ([4]; CPA 100 mg (N = 245)) was 24. The “12-week double-blind discontinuation rate due to Adverse Event” value ([4]; CPA 100 mg (N = 245)) was “(9.8%)”, the “Frequency and severity in subjects who continued to experience hot flashes or sweating” value [5] was “decreased” and the “Subjects with outbreaks of sweating” value ([5]; placebo 47%) was 24%. The “Subjects experiencing hot flashes” value ([5]; placebo 61%) was 33% and the “Evaluable patients with general improvement in subjective assessment of quality of life” value [6] was 70%.
